Reference: ChEMBL document CHEMBL4680278 (J Med Chem, 2020)

Target: G-protein coupled receptor 55 (Homo sapiens, UniProt Q9Y2T6)
Experiment: Activation of recombinant human GPR55 expressed in HEK293 cells assessed as increase in [35S]-GTPgammaS stimulation incubated for 60 min by scintillation counting method
Assay type: functional, cell-based

Chain of G-protein coupled receptor 55 (Q9Y2T6 whole entry): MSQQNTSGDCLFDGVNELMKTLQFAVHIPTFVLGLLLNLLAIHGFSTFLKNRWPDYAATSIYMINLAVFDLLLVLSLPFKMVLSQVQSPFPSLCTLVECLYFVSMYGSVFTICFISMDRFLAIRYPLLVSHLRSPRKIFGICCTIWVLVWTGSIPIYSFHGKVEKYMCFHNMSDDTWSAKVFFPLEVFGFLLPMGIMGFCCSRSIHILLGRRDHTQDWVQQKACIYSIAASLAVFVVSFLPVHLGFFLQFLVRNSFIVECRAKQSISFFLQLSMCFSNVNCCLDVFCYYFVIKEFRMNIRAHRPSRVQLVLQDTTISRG

Structure (SMILES) | EC50 [nM]
C=C(C)[C@@H]1CCC(C)=C[C@H]1c1c(O)cc(O)cc1CCCCC | 2
C=C(C)[C@@H]1CCC(C)=C[C@H]1c1c(C)cc(O)cc1O | 2
